PMC7719179, “Small molecule inhibition of Dynamin-dependent endocytosis targets multiple niche signals and impairs leukemia stem cells” (Nature Communications, 2020)
Values joined by “and” are separate entries in the source; they are usually repeats but may differ in a detail not shown here. Equal entries are not always repeated.

Assays:
[1] = system: pre-leukemic clones in DN3a cells; experiment: Tcrβ gene rearrangement (clonality) in DN3a thymocytes of treated Lmo2^Tg mice; format: in vivo, mouse
Method: page 8: Supplementary Figure 4. […] therapy (VXL) or combination therapy was administered. Mean ± SEM, 2 -way ANOVA with Tukey’s […] poly-clonal Tcrβ gene rearrangements (pie charts) in these purified thymocytes (n = 5).

[2] = system: leukemogenicity of pre-LSCs; experiment: Time to leukemia of recipients injected with thymocytes from treated Lmo2^Tg mice; format: in vivo, mouse; conditions: for Time to leukemia / Time to leukemia (days): * non-leukemic at endpoint
Method: Fold expansion was calculated by dividing the absolute output number of donor-derived DN3a cells harvested at the experimental endpoint by the respective number of DN3a thymocytes injected in each recipient. […] Leukemia-propagating cell frequency was calculated by applying Poisson statistics using the ELDA: Extreme Limiting Dilution Analysis software (Walter and Eliza Hall Institute Bioinformatics, Parkville VIC, Australia)[96]. Limiting dilution transplantations were performed independently from any other transplantation assays, using thymocytes from three different Lmo2^Tg mice for each cohort. […] Log-rank (Mantel -Cox)

[3] = system: pSTAT5 and pERK in AML01-307 and AML18 patient-derived cells; experiment: pSTAT5 and pERK in AML01-307 and AML18 cells harvested from treated recipients; format: in vivo, human
Method: Phosphoflow analysis was performed as previously described. Briefly, 2 × 10^6 cells stained for surface markers were subsequently resuspended into PBS 1× + 4% v/v paraformaldehyde and incubated for 10 min at 4 °C for fixation. Fixed cells were washed twice using PBS 1×, then resuspended in pre-chilled at −20 °C Perm Buffer III (BD Pharmingen) and incubated 30 min at 4 °C for permeabilization. Cells were washed twice using PBS 1× and incubated overnight at 4 °C in PBS 1× + 2% v/v fetal calf serum (FCS) with Cell Signalling purified antibodies (Genesearch Pty Ltd, Arundel QLD, Australia) against pSTAT5 (Tyr694; #9359), phospho-p38 MAPK (Thr180/Tyr182; #4511), phospho-p44/42 (Erk1/2; #9102), phospho-S6 (Ser235/236; #4856) and phospho-Akt (Ser473; #9271) or isotype control. For intracellular HES1 detection, cells stained for surface markers were subsequently fixed and permeabilized using the BD Cytofix/Cytoperm^TM Kit and incubated overnight at 4 °C in PBS 1× + 2% v/v FCS with a purified antibody against HES1 (D6PU; #11988, Cell Signalling) or isotype control. After staining with primary antibodies for phosphoflow or intracellular detection, cells were incubated in permeabilization buffer with donkey Alexa Fluor 488-conjugated anti-rabbit secondary antibody (A-21206, lot #1910751, Molecular Probes, Invitrogen) or goat Alexa Fluor 546-conjugated anti-rabbit secondary antibody (A-11035, lot #1904467, Molecular Probes, Invitrogen) for 1 h on ice, and washed twice in PBS 1×. Fluorescence-activated cell sorting (FACS) analysis was performed using LSRII and LSR Fortessa cytometers, following the gating strategies described in Supplementary Fig. 11. Cell sorting was performed with a FACSAria or BD Influx.
Patient-derived xenograft models were established as previously described[97],[98]. […] For transplantation assays, 10^6 splenocytes harvested from successfully engrafted primary human ETP-ALL or T-ALL xenografts were injected into nonobese diabetic/severe combined immunodeficient (NOD.Cg-Prkdc^scid, also termed NOD/SCID) or NOD/SCID/Il2rg^tm1wjl/SzJ (NSG) mice[99]. Moreover, 1.5 × 10^6 cells splenocytes harvested from successfully engrafted patient-derived AML xenografts were injected into nonobese diabetic/severe immunodeficient (NOD.Cg-Rag1^tm1MomIl2rg^tm1wjl/SzJ, also termed NRG) mice expressing human IL-3, human GM-CSF and human SCF from the SGM3 triple transgene (NRGS)[100]. Engraftment into recipients was monitored by FACS analysis of peripheral blood as previously described. […] The in vivo efficacy of Dynole 34-2 was assessed 24 h after the last injection by FACS analysis and immunohistochemistry as described in Supplementary Methods. […]
assessed by flow cytometry. […]

[4] = system: normal human CD34-positive HSPCs; experiment: Clonogenic assay of human CD34-positive HSPCs from healthy donors, 10 days (LC50); format: cell-based; design: Relative number of colonies (% DMSO): unit of the concentration uncertain
Method: (§1) Cultures were incubated at 37 °C in 10% CO2 for 10 days in presence of 10 μg/mL rhIL-3 (#200-03, Pepro Tech), 25 μg/mL rhSCF (#300-07, Pepro Tech), 25 μg/mL rhFLT3-L (#300-19, Pepro Tech), rhIL-6 (#200-06, Pepro Tech), 500 nM StemRegenin 1 (SR1; #1227633-49-9, Stem Cell Technologies) and 35 nM UM-171 (#72914, Stem Cell Technologies)[93],[94], then stained with acetyl-cholinesterase and counted for the number of colonies.

[5] = as above; format: cell-based; design: Relative number of colonies (% DMSO): unit of the concentration uncertain; conditions: human
Method: as §1

**Q.** With `CCCCCCCCNC(=O)C(C#N)=Cc1cn(CCCN(C)C)c2ccccc12` [Dynole 34-2, 2-Cyano-N-octyl-3-(1-(3-dimethylaminopropyl)-1H-indol-3-yl)-acrylamide] as the molecule, how does the “Clonality (%) for each sample: Oligoclonal” value ([1]; mouse, in vivo) read?
**A.** 100% and 50%

**Q.** What about the “clonality of DN3a cells by Tcrβ rearrangement” value ([1]; treated Lmo2^Tg mice, result in words) of the same molecule?
**A.** reduced monoclonality

**Q.** What about the “Time to leukemia” value ([2]; Supplementary Figure 3h) of the same molecule?
**A.** 138 days and 132 days and 116 days and 149 days

**Q.** And the “Time to leukemia (days)” value ([2]; Supplementary Figure 3h)?
**A.** > 210* days

**Q.** And the “Time to leukemia” value ([2]; Supplementary Figure 4d)?
**A.** 170 days and 151 days and 119 days and 142 days

**Q.** And the “Time to leukemia (days)” value ([2]; Supplementary Figure 4d)?
**A.** > 210* days

**Q.** And the “leukemogenic potential of pre-LSCs / progression to leukemia in recipients” value ([2]; recipients of thymocytes from treated Lmo2^Tg mice, result in words)?
**A.** delayed progression to leukemia

**Q.** What about the “pERK (MFI) in human CD45+ cells” value ([3]; PDX AML01-307) of the same molecule?
**A.** 2273 MFI and 2265 MFI and 2049 MFI

**Q.** What about the “pSTAT5 (MFI) in human CD45+ cells” value ([3]; PDX AML01-307) of the same molecule?
**A.** 8952 MFI and 11167 MFI and 9167 MFI

**Q.** And the “pERK (MFI) in human CD45+ cells” value ([3]; PDX AML18)?
**A.** 5026 MFI and 5676 MFI and 5643 MFI and 5242 MFI and 5439 MFI and 6959 MFI

**Q.** What about the “pSTAT5 (MFI) in human CD45+ cells” value ([3]; PDX AML18) of the same molecule?
**A.** 4926 MFI and 5695 MFI and 4653 MFI

**Q.** And the “Relative number of colonies (% DMSO)” value ([4]; CD34_1003, dose 0.04 (unit uncertain))?
**A.** 99.5 % DMSO and 94.6 % DMSO

**Q.** What about the “Relative number of colonies (% DMSO)” value ([4]; CD34_1003, dose 0.2 (unit uncertain)) of the same molecule?
**A.** 88.8 % DMSO and 76.1 % DMSO

**Q.** What about the “Relative number of colonies (% DMSO)” value ([4]; CD34_1003, dose 1 (unit uncertain)) of the same molecule?
**A.** 82.9 % DMSO and 71.2 % DMSO

**Q.** And the “Relative number of colonies (% DMSO)” value ([4]; CD34_1003, dose 5 (unit uncertain))?
**A.** 48.8 % DMSO and 56.6 % DMSO

**Q.** And the “Relative number of colonies (% DMSO)” value ([4]; CD34_1003, dose 25 (unit uncertain))?
**A.** 0.0 % DMSO

**Q.** And the “Relative number of colonies (% DMSO)” value ([4]; CD34_1602, dose 0.04 (unit uncertain))?
**A.** 116.1 % DMSO and 109.5 % DMSO

**Q.** What about the “Relative number of colonies (% DMSO)” value ([4]; CD34_1602, dose 0.2 (unit uncertain)) of the same molecule?
**A.** 118.9 % DMSO and 100.0 % DMSO

**Q.** And the “Relative number of colonies (% DMSO)” value ([4]; CD34_1602, dose 1 (unit uncertain))?
**A.** 106.3 % DMSO and 87.8 % DMSO

**Q.** And the “Relative number of colonies (% DMSO)” value ([4]; CD34_1602, dose 5 (unit uncertain))?
**A.** 89.5 % DMSO and 73.0 % DMSO

**Q.** What about the “Relative number of colonies (% DMSO)” value ([4]; CD34_1602, dose 25 (unit uncertain)) of the same molecule?
**A.** 0.0 % DMSO

**Q.** What about the “Relative number of colonies (% DMSO)” value ([4]; CD34_2104, dose 0.04 (unit uncertain)) of the same molecule?
**A.** 102.6 % DMSO

**Q.** And the “Relative number of colonies (% DMSO)” value ([4]; CD34_2104, dose 0.2 (unit uncertain))?
**A.** 104.6 % DMSO and 97.4 % DMSO

**Q.** What about the “Relative number of colonies (% DMSO)” value ([4]; CD34_2104, dose 1 (unit uncertain)) of the same molecule?
**A.** 68.7 % DMSO and 76.9 % DMSO

**Q.** What about the “Relative number of colonies (% DMSO)” value ([4]; CD34_2104, dose 25 (unit uncertain)) of the same molecule?
**A.** 0.0 % DMSO

**Q.** What about the CC50 at 10 days ([5]; normal human CD34-positive HSPCs, clonogenic assay 10 days, Mean ± SEM) of the same molecule?
**A.** 23 ± 5.72 µM

**Q.** What about the CC50 at 10 days ([5]; sample 06-02-2018 CD34) of the same molecule?
**A.** 8.8 µM

**Q.** And the CC50 at 10 days ([5]; sample 10-03-2018 CD34)?
**A.** 9.85 µM

**Q.** And the CC50 at 10 days ([5]; sample 18/03/2016 CD34)?
**A.** 7.09 µM

**Q.** And the CC50 at 10 days ([5]; sample 21-04-2018 CD34)?
**A.** 7.34 µM

**Q.** And the CC50 at 10 days ([5]; sample 22/05/2018 CD34)?
**A.** 17.2 µM

**Q.** And the CC50 at 10 days ([5]; sample 24/06/2016 CD34)?
**A.** 11.3 µM
